Assay results: ChEMBL document CHEMBL5223156, “Synthesis and biological evaluation of novel N-benzyltriazolyl-hydroxamate derivatives as selective histone deacetylase 6 inhibitors” (Bioorg Med Chem, 2023)
Calls of active or inactive are those of the source. The calls are words filed in the database; no cut-off is given here.

Legend:
[1] = target: T1, Protein deacetylase HDAC6 (Homo sapiens, UniProt Q9UBN7); assay: Inhibition of human recombinant HDAC6 using fluorogenic substrate measured after 30 mins
T1 sequence (Q9UBN7 whole entry): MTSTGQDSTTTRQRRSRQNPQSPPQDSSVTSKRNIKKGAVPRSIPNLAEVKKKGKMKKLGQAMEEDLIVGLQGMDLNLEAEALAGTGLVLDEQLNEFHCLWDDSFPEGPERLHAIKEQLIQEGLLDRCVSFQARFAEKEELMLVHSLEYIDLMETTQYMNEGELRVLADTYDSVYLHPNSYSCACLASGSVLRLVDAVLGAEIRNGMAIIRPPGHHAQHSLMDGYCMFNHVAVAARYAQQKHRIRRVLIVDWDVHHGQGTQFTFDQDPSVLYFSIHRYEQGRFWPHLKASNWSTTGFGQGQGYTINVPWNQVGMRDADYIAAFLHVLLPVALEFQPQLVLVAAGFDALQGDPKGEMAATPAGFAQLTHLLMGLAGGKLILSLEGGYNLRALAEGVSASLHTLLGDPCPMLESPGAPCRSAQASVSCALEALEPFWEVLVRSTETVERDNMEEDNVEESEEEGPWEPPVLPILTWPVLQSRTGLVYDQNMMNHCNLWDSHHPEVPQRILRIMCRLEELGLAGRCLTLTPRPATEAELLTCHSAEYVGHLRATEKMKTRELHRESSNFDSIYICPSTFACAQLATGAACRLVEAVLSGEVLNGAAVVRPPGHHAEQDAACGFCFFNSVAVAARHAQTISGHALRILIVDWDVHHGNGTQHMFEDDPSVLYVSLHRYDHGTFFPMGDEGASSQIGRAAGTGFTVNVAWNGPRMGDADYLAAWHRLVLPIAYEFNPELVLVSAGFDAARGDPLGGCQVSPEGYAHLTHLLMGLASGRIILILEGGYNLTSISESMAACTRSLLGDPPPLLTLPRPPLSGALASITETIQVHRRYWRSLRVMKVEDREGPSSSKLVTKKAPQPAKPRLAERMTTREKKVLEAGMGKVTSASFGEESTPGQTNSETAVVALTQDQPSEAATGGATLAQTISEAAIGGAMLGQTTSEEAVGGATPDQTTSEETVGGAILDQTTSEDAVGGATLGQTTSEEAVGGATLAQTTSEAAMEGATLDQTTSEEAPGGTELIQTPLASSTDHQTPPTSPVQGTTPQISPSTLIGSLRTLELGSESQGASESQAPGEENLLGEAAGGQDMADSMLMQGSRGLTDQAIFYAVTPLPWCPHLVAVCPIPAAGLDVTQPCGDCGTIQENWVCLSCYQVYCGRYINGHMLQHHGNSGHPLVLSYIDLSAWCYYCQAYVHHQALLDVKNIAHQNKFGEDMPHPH

Histone deacetylase 1 = Histone deacetylase 1 (Homo sapiens, UniProt Q13547); assay: Inhibition of human recombinant HDAC1 using fluorogenic substrate measured after 30 mins
[2] = Cytotoxicity against human SH-SY5Y cells assessed as cell viability measured after 36 hrs by CCK8 assay
[3] = target: T2, Protein deacetylase HDAC6 (Homo sapiens) (UniProt Q9UBN7); assay: Inhibition of HDAC6 in human SH-SY5Y cells assessed as acetylated histone H3 level at 0.3 to 3 uM measured after 24 hrs by immunoblotting analysis; assay type: cell-based; settings: dose 0.3-3 µM
T2 sequence (whole entry): T1 sequence (Q9UBN7 whole entry)

Histone deacetylase 8 = target: T3, Histone deacetylase 8 (Homo sapiens, UniProt Q9BY41); assay: Inhibition of human recombinant HDAC8 using fluorogenic substrate measured after 30 mins
T3 sequence (Q9BY41 whole entry): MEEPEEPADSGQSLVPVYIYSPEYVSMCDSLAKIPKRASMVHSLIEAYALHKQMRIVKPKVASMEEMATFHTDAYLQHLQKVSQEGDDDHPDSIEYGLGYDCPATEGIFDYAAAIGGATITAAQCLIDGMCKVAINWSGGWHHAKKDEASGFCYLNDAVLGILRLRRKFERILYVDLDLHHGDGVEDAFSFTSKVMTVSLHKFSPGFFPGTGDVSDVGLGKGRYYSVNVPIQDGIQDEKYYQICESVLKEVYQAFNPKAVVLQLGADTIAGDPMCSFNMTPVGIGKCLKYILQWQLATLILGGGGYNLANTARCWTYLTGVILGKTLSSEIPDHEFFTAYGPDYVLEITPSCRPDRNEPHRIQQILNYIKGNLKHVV

Histone deacetylase 2 = Histone deacetylase 2 (Homo sapiens, UniProt Q92769); assay: Inhibition of human recombinant HDAC2 using fluorogenic substrate measured after 30 mins
Histone deacetylase 11 = target: T4, Histone deacetylase 11 (Homo sapiens, UniProt Q96DB2); assay: Inhibition of human recombinant HDAC11 using fluorogenic substrate measured after 30 mins
T4 sequence (Q96DB2 whole entry): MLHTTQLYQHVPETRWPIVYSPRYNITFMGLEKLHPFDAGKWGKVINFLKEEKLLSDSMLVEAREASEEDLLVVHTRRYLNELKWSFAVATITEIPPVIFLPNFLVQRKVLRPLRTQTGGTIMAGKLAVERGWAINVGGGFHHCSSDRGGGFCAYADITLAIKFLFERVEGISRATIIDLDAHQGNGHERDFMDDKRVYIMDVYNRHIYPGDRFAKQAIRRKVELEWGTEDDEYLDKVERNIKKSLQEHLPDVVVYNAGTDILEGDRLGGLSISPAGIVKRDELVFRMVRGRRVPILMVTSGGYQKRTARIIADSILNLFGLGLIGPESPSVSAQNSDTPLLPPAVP

Histone deacetylase 4 = Histone deacetylase 4 (Homo sapiens, UniProt P56524); assay: Inhibition of human recombinant HDAC4 using fluorogenic substrate measured after 30 mins
[4] = target: T2, Protein deacetylase HDAC6 (Homo sapiens); assay: Inhibition of HDAC6 in human HeLa cells assessed as acetylated histone H3 level at 0.3 to 3 uM measured after 24 hrs by immunoblotting analysis; assay type: cell-based; settings: dose 0.3-3 µM

Histone deacetylase 1, sequence (Q13547 whole entry): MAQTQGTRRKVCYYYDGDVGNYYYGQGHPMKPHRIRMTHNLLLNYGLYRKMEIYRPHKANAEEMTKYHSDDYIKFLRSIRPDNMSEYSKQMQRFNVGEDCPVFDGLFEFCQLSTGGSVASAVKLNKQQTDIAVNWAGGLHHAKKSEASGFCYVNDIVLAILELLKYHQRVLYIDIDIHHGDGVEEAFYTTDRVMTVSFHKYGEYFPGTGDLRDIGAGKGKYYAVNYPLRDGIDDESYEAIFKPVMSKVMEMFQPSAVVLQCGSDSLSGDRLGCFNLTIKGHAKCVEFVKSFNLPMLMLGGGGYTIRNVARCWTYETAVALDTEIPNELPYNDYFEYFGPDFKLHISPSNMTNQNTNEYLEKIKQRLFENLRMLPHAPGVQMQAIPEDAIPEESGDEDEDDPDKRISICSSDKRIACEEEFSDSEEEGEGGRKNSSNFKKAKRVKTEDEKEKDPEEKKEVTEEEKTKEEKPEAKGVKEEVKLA
Histone deacetylase 4, sequence (P56524 whole entry): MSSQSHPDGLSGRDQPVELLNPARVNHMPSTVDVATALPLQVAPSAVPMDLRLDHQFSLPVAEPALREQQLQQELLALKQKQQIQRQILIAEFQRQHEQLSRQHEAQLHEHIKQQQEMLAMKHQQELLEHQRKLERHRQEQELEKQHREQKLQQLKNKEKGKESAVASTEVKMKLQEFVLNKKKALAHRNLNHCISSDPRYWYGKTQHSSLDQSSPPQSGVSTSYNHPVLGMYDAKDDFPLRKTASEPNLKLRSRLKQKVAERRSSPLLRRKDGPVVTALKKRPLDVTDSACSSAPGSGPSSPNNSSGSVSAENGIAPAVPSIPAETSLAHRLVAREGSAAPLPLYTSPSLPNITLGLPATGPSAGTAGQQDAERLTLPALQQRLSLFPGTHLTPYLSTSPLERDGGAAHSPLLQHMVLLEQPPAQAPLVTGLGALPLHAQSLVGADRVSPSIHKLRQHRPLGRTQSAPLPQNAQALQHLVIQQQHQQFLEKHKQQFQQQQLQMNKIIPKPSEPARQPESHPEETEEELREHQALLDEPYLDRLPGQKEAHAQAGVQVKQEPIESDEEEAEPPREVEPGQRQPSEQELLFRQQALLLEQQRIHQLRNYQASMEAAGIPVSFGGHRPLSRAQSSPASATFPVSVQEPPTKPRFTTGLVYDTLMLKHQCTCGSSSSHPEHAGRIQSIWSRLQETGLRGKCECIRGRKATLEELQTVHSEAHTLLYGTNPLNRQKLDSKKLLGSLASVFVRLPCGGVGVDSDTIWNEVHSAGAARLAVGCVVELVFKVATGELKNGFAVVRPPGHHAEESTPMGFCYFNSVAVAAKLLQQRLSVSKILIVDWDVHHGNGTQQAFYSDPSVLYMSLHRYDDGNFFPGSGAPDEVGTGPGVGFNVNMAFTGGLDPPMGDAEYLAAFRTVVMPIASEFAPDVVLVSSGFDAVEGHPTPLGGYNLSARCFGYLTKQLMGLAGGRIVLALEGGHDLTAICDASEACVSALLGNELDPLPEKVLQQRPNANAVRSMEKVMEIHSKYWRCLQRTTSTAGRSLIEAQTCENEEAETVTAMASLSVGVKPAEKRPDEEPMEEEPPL
Histone deacetylase 2, sequence (Q92769 whole entry): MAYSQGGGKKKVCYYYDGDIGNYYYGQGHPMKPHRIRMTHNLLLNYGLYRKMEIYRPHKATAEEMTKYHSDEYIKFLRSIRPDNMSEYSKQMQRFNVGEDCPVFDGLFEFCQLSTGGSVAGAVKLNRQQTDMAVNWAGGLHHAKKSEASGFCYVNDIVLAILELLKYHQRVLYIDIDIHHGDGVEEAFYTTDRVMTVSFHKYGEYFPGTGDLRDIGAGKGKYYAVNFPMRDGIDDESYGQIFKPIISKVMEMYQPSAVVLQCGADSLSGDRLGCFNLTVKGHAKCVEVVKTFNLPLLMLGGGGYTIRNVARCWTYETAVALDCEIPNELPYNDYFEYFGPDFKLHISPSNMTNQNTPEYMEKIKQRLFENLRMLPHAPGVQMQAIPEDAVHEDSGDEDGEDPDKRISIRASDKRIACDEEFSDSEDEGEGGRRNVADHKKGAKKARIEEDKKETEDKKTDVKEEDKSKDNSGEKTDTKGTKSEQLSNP

O=C(NO)c1ccc(Cn2cnc(-c3cccc(OC(F)(F)F)c3)n2)cc1
IC50 [1]: 13.3 nM
IC50 (Histone deacetylase 1): 212 nM

O=C(NO)c1ccc(Cn2cnc(-c3cccc(-c4ccccc4)c3)n2)cc1
IC50 [1]: 11.1 nM
IC50 (Histone deacetylase 1): 150 nM

O=C(NO)c1ccc(Cn2ncnc2-c2ccccc2F)cc1
IC50 [1]: 11.8 nM
IC50 (Histone deacetylase 1): 605 nM

COc1cccc(-c2ncn(Cc3ccc(C(=O)NO)cc3)n2)c1
IC50 [1]: 11.5 nM
IC50 (Histone deacetylase 1): 167 nM

O=C(NO)c1ccc(Cn2cncn2)cc1
IC50 [1]: 91.8 nM
IC50 (Histone deacetylase 1): 1440 nM

O=C(NO)c1ccc(Cn2cnc(-c3ccccc3F)n2)cc1
IC50 [1]: 10 nM
IC50 (Histone deacetylase 1): 256 nM

O=C(NO)c1ccc(Cn2cnc(-c3ccccc3)n2)nc1
IC50 [1]: 20.6 nM
IC50 (Histone deacetylase 1): 431 nM

O=C(NO)c1ccc(Cn2cnc(-c3cccc(O)c3)n2)cc1
IC50 [1]: 12.3 nM
IC50 (Histone deacetylase 1): 197 nM

Cc1cccc(-c2ncn(Cc3ccc(C(=O)NO)cc3)n2)c1
IC50 [1]: 14.7 nM
IC50 (Histone deacetylase 1): 168 nM

O=C(NO)c1ccc(Cn2cnc(-c3ccccc3)n2)cc1
IC50 [1]: 9.11 nM
IC50 (Histone deacetylase 1): 206 nM

O=C(NO)c1ccc(Cn2ncnc2-c2ccccc2)cc1
IC50 [1]: 16.9 nM
IC50 (Histone deacetylase 1): 341 nM

O=C(NO)c1ccc(Cn2cnc(-c3cccc(F)c3)n2)cc1
IC50 [1]: 8.73 nM
IC50 (Histone deacetylase 1): 268 nM

O=C(NO)c1ccc(Cn2cnc(-c3ccc(F)cc3)n2)cc1
IC50 [1]: 12.6 nM
IC50 (Histone deacetylase 1): 269 nM

O=C(NO)c1ccc(Cn2cnc(-c3cc(F)cc(F)c3)n2)cc1
IC50 [1]: 19.6 nM
IC50 (Histone deacetylase 1): 256 nM

O=C(NO)c1cccc(Cn2ncnc2-c2ccccc2)c1
IC50 [1]: 152 nM
IC50 (Histone deacetylase 1): 18300 nM

O=C(NO)c1ccc(Cn2cnc(Br)n2)cc1
IC50 [1]: 44.1 nM
IC50 (Histone deacetylase 1): 926 nM

O=C(NO)c1cccc(Cn2cnc(-c3ccccc3)n2)c1
IC50 [1]: 1300 nM
IC50 (Histone deacetylase 1): 38800 nM

O=C(NO)c1ccc(Cn2cnc(-c3c(F)cccc3F)n2)cc1
IC50 [1]: 14.3 nM
IC50 (Histone deacetylase 1): 369 nM

O=C(NO)c1ccc(Cn2cnc(-c3ccccc3)n2)c(F)c1
IC50 [1]: 12.4 nM
IC50 (Histone deacetylase 1): 455 nM

O=C(NO)c1ccc(Cn2cnc(-c3cccc(Cl)c3)n2)cc1
IC50 [1]: 6.4 nM
IC50 (Histone deacetylase 1): 111 nM

O=C(NO)c1ccc(Cn2cnc(-c3cccnc3)n2)cc1
IC50 [1]: 27.9 nM
IC50 (Histone deacetylase 1): 356 nM

O=C(NO)c1ccc(Cn2cnc(-c3ccccc3F)n2)c(F)c1
IC50 [1]: 7.09 nM
inhibition [3]: Active
IC50 (Histone deacetylase 8): 813 nM
IC50 (Histone deacetylase 2): 509 nM
IC50 (Histone deacetylase 11): 8090 nM
IC50 (Histone deacetylase 4): 4040 nM
inhibition [4]: Active
IC50 (Histone deacetylase 1): 299 nM
IC50 at 36 h [2]: 8210 nM

O=C(NO)c1ccc(Cn2ncnc2-c2cccs2)cc1
IC50 [1]: 18.3 nM
IC50 (Histone deacetylase 1): 427 nM

O=C(NO)c1cccc(Cn2cncn2)c1
IC50 [1]: 11400 nM
IC50 (Histone deacetylase 1): 23200 nM

O=C(NO)c1ccc(Cn2cnc(-c3cccc(C(F)(F)F)c3)n2)cc1
IC50 [1]: 4.57 nM
IC50 (Histone deacetylase 1): 122 nM

O=C(NO)c1ccc(Cn2cnc(-c3cccs3)n2)cc1
IC50 [1]: 10.4 nM
IC50 (Histone deacetylase 1): 249 nM
